Source: patent US7148231B2, “[6,7-Bis(2-methoxy-ethoxy)-quinazolin-4-yl]-(3-ethynyl-phenyl)amine hydrochloride polymorph” (Hoffmann-La Roche Inc., priority 2003, dated 2006)
Read-outs that look alike come from different tables or passages of the source.

Assays:
[1] = Thermodynamic stability (melting point, heat of solution, equilibration experiments in suspension); type: physicochemical; conditions: comparison of polymorphs E, A and B; hydrochloride
Method: The thermodynamic stability of the individual crystalline polymorphs E, A and B of [6,7-Bis(2-methoxy-ethoxy)-quinazolin-4-yl]-(3-ethynyl-phenyl)amine hydrochloride were measured according to methods known in the art, e.g., from Byrn (Byrn, S. R., Pfeiffer, R. R., Stowell, J. G., “Solid-State Chemistry of Drugs”, SSCI Inc., West Lafayette, Ind., 1999).

[2] = Solubility after 20 min equilibration at 20° C.; type: physicochemical; conditions: hydrochloride; for solubility in aqueous buffer (pH 1): aqueous buffer solution pH 1, 20 min equilibration at 20° C.; for solubility in water: 20 min equilibration at 20° C.
Method: The solubility of polymorphs A, B, and E measured after 20 min equilibration at 20° C. in either water or aqueous buffer solution (pH 1) are compiled the following table.: […]

Dissolution rate = type: physicochemical; conditions: compared with polymorph B
[3] = polymorphs described in WO 01/34574; cited from earlier work
[4] = polymorphs described in WO 01/34574; cited from earlier work; remark: listed apart in the source
[5] = polymorphs described in WO 01/34574; cited from earlier work; remark: listed apart in the source

Compound	thermodynamic stability [1]	solubility in aqueous buffer (pH 1) [2]	solubility in water [2]	dissolution rate (Dissolution rate)	dissolution rate [3]	solubility [4]	thermodynamic stability [5]
C#Cc1cccc(Nc2ncnc3cc(OCCOC)c(OCCOC)cc23)c1.Cl [polymorph E, [6,7-Bis(2-methoxy-ethoxy)-quinazolin-4-yl]-(3-ethynyl-phenyl)amine hydrochloride]	thermodynamically more stable than polymorph A	0.011%	0.191%	better solubility and dissolution rate than the known polymorph B			
C#Cc1cccc(Nc2ncnc3cc(OCCOC)c(OCCOC)cc23)c1.Cl [polymorph A, [6,7-Bis(2-methoxy-ethoxy)-quinazolin-4-yl]-(3-ethynyl-phenyl)amine hydrochloride]		0.017%	0.194%		better solubility and dissolution rate than polymorph B	better solubility and dissolution rate than polymorph B	
C#Cc1cccc(Nc2ncnc3cc(OCCOC)c(OCCOC)cc23)c1.Cl [polymorph B, [6,7-Bis(2-methoxy-ethoxy)-quinazolin-4-yl]-(3-ethynyl-phenyl)amine hydrochloride]	more stable than polymorphs E and A	0.003%	0.098%				thermodynamically more stable than polymorph A
